Peptide text beside a SMILES is read from it. * marks the point of attachment. C16 diacid = O=C(O)CCCCCCCCCCCCCCC(=O)*
Tests used:
human GIP receptor [1] = biological target: T1, human GIP receptor (Homo sapiens, UniProt P48546); assay: cAMP accumulation assay, antagonism of a GIP-mediated cAMP response (50-80% of max); format: cell-based; conditions: transiently transfected COS-7 cells; Table 1 and text; read-out: cAMP antagonism nM (IC50, antagonistic potency)
T1 construct: host or cells: COS-7, transient transfection (calcium phosphate), cDNA in pCMV-Script
T1 sequence (P48546 22-466): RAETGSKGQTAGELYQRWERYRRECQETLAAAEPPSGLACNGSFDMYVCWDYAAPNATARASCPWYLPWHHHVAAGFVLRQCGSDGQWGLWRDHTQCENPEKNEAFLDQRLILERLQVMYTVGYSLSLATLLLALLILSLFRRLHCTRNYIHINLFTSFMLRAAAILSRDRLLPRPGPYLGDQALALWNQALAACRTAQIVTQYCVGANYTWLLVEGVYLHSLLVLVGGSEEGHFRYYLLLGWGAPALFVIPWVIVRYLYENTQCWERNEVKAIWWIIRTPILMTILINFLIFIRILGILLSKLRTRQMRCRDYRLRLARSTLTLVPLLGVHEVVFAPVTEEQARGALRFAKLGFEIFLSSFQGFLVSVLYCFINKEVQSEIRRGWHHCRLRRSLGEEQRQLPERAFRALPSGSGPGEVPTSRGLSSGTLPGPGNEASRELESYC
Description: The day after, the cells were washed twice with Hepes buffered saline (HBS) buffer and incubated with HBS and 1 mM 3-isobutyl-1-methylxanthine (IBMX) for 30 min at 37° C. […] The HitHunter™ cAMP XS assay (DiscoveRx) was carried out according to the manufacturer's instructions.

human GIP receptor [2] = biological target: T1, human GIP receptor; assay: cAMP accumulation assay, agonism (ligand alone); format: cell-based; conditions: COS-7 cells, Table 1; for Emax: COS-7, intrinsic cAMP activity

Structure (SMILES)	IC50 (human GIP receptor [1]) [nM]	Emax (human GIP receptor [2]) [%]	EC50 (human GIP receptor [2]; read-out: cAMP agonism nM (EC50)) [nM]	cAMP agonism Emax (human GIP receptor [2]; intrinsic cAMP activity)
CC[C@H](C)[C@H](NC(=O)[C@H](CO)NC(=O)[C@H](Cc1ccc(O)cc1)NC(=O)[C@H](CC(=O)O)NC(=O)[C@H](CO)NC(=O)[C@@H](NC(=O)[C@H](Cc1ccccc1)NC(=O)[C@@H](NC(=O)CNC(=O)[C@@H](N)CCC(=O)O)[C@@H](C)O)[C@@H](C)CC)C(=O)N[C@@H](C)C(=O)N[C@@H](CCSC)C(=O)N[C@@H](CC(=O)O)C(=O)N[C@@H](CCCCN)C(=O)N[C@H](C(=O)N[C@@H](Cc1c[nH]cn1)C(=O)N[C@@H](CCC(N)=O)C(=O)N[C@@H](CCC(N)=O)C(=O)N[C@@H](CCCCNC(=O)CCCCCCCCCCCCCCC(=O)O)C(=O)N[C@@H](Cc1ccccc1)C(=O)N[C@H](C(=O)N[C@@H](CC(N)=O)C(=O)N[C@@H](Cc1c[nH]c2ccccc12)C(=O)N[C@@H](CC(C)C)C(=O)N[C@@H](CC(C)C)C(=O)N[C@@H](C)C(=O)N[C@@H](CCC(N)=O)C(=O)N[C@@H](CCCCN)C(N)=O)C(C)C)[C@@H](C)CC [AT310, [hGIP(3-30)NH2[D21K]-C16diacid/21]] (H-EGTFISDYSIAMDKIHQQK(C16 diacid)FVNWLLAQK-NH2; N-terminus assumed)	49	6.2	–	–
CC[C@H](C)[C@H](NC(=O)[C@H](CO)NC(=O)[C@H](Cc1ccc(O)cc1)NC(=O)[C@H](CC(=O)O)NC(=O)[C@H](CO)NC(=O)[C@@H](NC(=O)[C@H](Cc1ccccc1)NC(=O)[C@@H](NC(=O)CNC(=O)[C@@H](N)CCC(=O)O)[C@@H](C)O)[C@@H](C)CC)C(=O)N[C@@H](C)C(=O)N[C@@H](CCSC)C(=O)N[C@@H](CC(=O)O)C(=O)N[C@@H](CCCCN)C(=O)N[C@H](C(=O)N[C@@H](Cc1c[nH]cn1)C(=O)N[C@@H](CCC(N)=O)C(=O)N[C@@H](CCC(N)=O)C(=O)N[C@@H](CC(=O)O)C(=O)N[C@@H](Cc1ccccc1)C(=O)N[C@H](C(=O)N[C@@H](CC(N)=O)C(=O)N[C@@H](Cc1c[nH]c2ccccc12)C(=O)N[C@@H](CC(C)C)C(=O)N[C@@H](CC(C)C)C(=O)N[C@@H](C)C(=O)N[C@@H](CCCCNC(=O)CCCCCCCCCCCCCCC(=O)O)C(=O)N[C@@H](CCCCN)C(N)=O)C(C)C)[C@@H](C)CC [AT318, [hGIP(3-30)NH2[Q29K]-C16diacid/29]] (H-EGTFISDYSIAMDKIHQQDFVNWLLAK(C16 diacid)K-NH2; N-terminus assumed)	224	10.8	131	–
CC[C@H](C)[C@H](NC(=O)[C@H](CO)NC(=O)[C@H](Cc1ccc(O)cc1)NC(=O)[C@H](CC(=O)O)NC(=O)[C@H](CO)NC(=O)[C@@H](NC(=O)[C@H](Cc1ccccc1)NC(=O)[C@@H](NC(=O)CNC(=O)[C@@H](N)CCC(=O)O)[C@@H](C)O)[C@@H](C)CC)C(=O)N[C@@H](C)C(=O)N[C@@H](CCSC)C(=O)N[C@@H](CC(=O)O)C(=O)N[C@@H](CCCCNC(=O)CCCCCCCCCCCCCCC(=O)O)C(=O)N[C@H](C(=O)N[C@@H](Cc1c[nH]cn1)C(=O)N[C@@H](CCC(N)=O)C(=O)N[C@@H](CCC(N)=O)C(=O)N[C@@H](CC(=O)O)C(=O)N[C@@H](Cc1ccccc1)C(=O)N[C@H](C(=O)N[C@@H](CC(N)=O)C(=O)N[C@@H](Cc1c[nH]c2ccccc12)C(=O)N[C@@H](CC(C)C)C(=O)N[C@@H](CC(C)C)C(=O)N[C@@H](C)C(=O)N[C@@H](CCC(N)=O)C(=O)N[C@@H](CCCCN)C(N)=O)C(C)C)[C@@H](C)CC [AT370, [hGIP(3-30)NH2—C16diacid/16]]	25	–	–	no ag.

From patent US11572399B2, “Long-acting GIP peptide analogues” (University of Copenhagen, priority 2017, dated 2023)
